Key:
P-glycoprotein (P-gp) = target: T1, P-glycoprotein (P-gp) (Homo sapiens, UniProt P08183); experiment: Test for substrate recognition by P-gp (LLC-GA5-COL300 cells); assay type: in vitro ADME; settings: 10 μM, Human MDR1-expressing LLC-GA5-COL300 cells, Apical to Basolateral and Basolateral to Apical
T1 construct: expressed in transfected cells; host or cells: LLC-GA5-COL300 (pig kidney LLC-PK1 cells expressing human MDR1)
Excerpt: In the case of drugs that act on the central nervous system, it is generally important for such drugs to be transferred from blood into brain for development of their efficacy. In the blood-brain barrier, there is found P-glycoprotein (P-gp), which is a typical member of the efflux transporters that control drug penetration; and P-gp inhibits the penetration of its substrate drugs into the brain. Thus, in developing a drug, recognition performance as a P-gp substrate can be used as an indicator of brain penetration.
A test for substrate recognition by P-gp was conducted as described in J. Pharmacol. Exp. Ther. (1992) Vol. 263, No. 2, 840-845 and J. Biol. Chem. (1992) Vol. 267, No. 34, 24248-24252. Specifically, LLC-GA5-COL300 cells (i.e., a Human MDR1-expressing system originating from a pig kidney-derived cultured renal epithelial cell line, LLC-PK1) were used after being cultured for 4 days on trans wells, and the medium in each well was replaced by Hank's balanced salt solution (HBSS) immediately before use in the test. After a test compound solution (i.e., a DMSO solution of a test compound, which was further diluted with HBSS and adjusted to a final concentration of 10 μM) was added to the Donor side of the LLC-GA5-COL300 cells, aliquots of HBSS were sampled over time from the Acceptor side to determine the test compound concentration in each collected sample by LC-MS/MS.
The membrane permeability coefficient (×10^−6 cm/sec) was calculated by the accumulated amount of the compound into the Acceptor side for both directions, Apical to Basolateral and Basolateral to Apical. and the ratio of these coefficients (Efflux Ratio) was then used to evaluate substrate recognition by P-gp.

[1] = target: T2, human type 1 glycine transporter (GlyT1) (Homo sapiens, UniProt P48067); experiment: Glycine uptake inhibition experiment ([3H]glycine uptake in T98G cells); assay type: cell-based; settings: [3H]glycine 250 nM, 15 min, room temperature, read-out: glycine uptake inhibitory activity (IC50 value)
T2 construct: Glioma T98G cells endogenously expressing human type 1 glycine transporter (GlyT1) were used; endogenous in cells; host or cells: T98G human glioma cells
T2 sequence (P48067 1-706): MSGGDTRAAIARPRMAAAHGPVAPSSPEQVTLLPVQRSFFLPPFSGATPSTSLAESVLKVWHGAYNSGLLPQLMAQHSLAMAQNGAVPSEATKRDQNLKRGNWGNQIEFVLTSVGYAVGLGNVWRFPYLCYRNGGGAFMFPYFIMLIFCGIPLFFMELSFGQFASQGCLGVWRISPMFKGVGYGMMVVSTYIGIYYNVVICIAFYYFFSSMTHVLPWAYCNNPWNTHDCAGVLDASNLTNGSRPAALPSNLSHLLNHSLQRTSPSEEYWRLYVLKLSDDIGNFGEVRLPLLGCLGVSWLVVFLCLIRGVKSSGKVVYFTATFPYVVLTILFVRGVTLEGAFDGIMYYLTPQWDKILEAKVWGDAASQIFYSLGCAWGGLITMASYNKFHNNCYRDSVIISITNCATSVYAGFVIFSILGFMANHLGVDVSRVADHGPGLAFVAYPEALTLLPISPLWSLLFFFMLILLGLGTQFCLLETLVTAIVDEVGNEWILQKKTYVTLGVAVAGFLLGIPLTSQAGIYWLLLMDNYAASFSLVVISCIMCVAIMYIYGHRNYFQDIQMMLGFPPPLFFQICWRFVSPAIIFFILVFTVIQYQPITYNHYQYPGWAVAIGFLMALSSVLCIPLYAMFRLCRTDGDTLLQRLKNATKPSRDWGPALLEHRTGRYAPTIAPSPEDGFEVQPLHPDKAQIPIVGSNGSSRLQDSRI
Protocol: A glycine uptake experiment was conducted as described in Neuron, 8, 927-935, 1992. Glioma T98G cells endogenously expressing human type 1 glycine transporter (GlyT1) were used. T98G cells were seeded in a 96-well plate at 2.0×10^4 cells/well and cultured overnight in a CO2 incubator. A test compound was dissolved in a 100% DMSO solution and then dissolved in 10 mM HEPES buffer (pH 7.4) containing 150 mM sodium chloride, 1 mM calcium chloride, 5 mM potassium chloride, 1 mM magnesium chloride, 10 mM glucose and 0.2% bovine serum albumin. After removing the cell culture medium, the cells were pre-treated with the test compound for 10 minutes. Subsequently, the test compound and [^3H]glycine (final concentration: 250 nM) were added to the cells and incubated at room temperature for 15 minutes. After the incubation, the extracellular solution was aspirated with a manifold to remove the excess labeled glycine existing outside the cells, and the cells were then lysed with 0.5 M aqueous sodium hydroxide. The amount of glycine uptake was determined by measuring radioactivity in the cell lysate using a liquid scintillation counter. Glycine uptake in the presence of 10 μM ALX5407 was defined as non-specific uptake, and the value calculated by subtracting this non-specific uptake from the total uptake in the absence of 10 μM ALX5407 was defined as specific uptake. Moreover, an inhibition curve was obtained for each test compound at concentrations of […] to calculate the glycine uptake inhibitory activity (IC50 value) of each test substance.
It should be noted that ALX5407 is a HCl salt of N-[(3R)-3-([1,1′-biphenyl]-4-yloxy)-3-(4-fluorophenyl)propyl]-N-methylglycine.

male Sprague-Dawley rats = experiment: Social recognition test (MK-801-treated rats); assay type: in vivo; settings: rat; for Ratio (second exploration time/first exploration time): MK-801 0.1 mg/kg i.p.
Protocol: This experiment was performed using male Sprague-Dawley rats according to the reported method (Shimazaki et al., Psychopharmacology, 209, 263-270, 2010). Adult rats (9 weeks old) received intraperitoneal administration of MK-801 (0.1 mg/kg), and were immediately placed in test cages and acclimated for 30 minutes. Thereafter, juvenile rats (4 weeks old) were placed in the same test cages, where juvenile rats and adult rats were left for 5 minutes, during which the time it took for the adult rats to show social behavior (sniffing, grooming, following) to the juvenile rats was measured (first exploration time). Then, the juvenile rats were removed from the test cages and returned to their home cages. After 30 minutes, the same juvenile rats that were used in the first exploration were placed in the test cages, and the time it took for the adult rats to show social behavior (sniffing, grooming, following) to the juvenile rats during a 5-minute period was measured (second exploration time). The social recognition was expressed as the ratio of second exploration time to first exploration time. The test substance (Compound 10) was orally administered one hour before the start of first exploration. The vehicle group was administered a 0.5% methyl cellulose solution.

T1 sequence (P08183 whole entry): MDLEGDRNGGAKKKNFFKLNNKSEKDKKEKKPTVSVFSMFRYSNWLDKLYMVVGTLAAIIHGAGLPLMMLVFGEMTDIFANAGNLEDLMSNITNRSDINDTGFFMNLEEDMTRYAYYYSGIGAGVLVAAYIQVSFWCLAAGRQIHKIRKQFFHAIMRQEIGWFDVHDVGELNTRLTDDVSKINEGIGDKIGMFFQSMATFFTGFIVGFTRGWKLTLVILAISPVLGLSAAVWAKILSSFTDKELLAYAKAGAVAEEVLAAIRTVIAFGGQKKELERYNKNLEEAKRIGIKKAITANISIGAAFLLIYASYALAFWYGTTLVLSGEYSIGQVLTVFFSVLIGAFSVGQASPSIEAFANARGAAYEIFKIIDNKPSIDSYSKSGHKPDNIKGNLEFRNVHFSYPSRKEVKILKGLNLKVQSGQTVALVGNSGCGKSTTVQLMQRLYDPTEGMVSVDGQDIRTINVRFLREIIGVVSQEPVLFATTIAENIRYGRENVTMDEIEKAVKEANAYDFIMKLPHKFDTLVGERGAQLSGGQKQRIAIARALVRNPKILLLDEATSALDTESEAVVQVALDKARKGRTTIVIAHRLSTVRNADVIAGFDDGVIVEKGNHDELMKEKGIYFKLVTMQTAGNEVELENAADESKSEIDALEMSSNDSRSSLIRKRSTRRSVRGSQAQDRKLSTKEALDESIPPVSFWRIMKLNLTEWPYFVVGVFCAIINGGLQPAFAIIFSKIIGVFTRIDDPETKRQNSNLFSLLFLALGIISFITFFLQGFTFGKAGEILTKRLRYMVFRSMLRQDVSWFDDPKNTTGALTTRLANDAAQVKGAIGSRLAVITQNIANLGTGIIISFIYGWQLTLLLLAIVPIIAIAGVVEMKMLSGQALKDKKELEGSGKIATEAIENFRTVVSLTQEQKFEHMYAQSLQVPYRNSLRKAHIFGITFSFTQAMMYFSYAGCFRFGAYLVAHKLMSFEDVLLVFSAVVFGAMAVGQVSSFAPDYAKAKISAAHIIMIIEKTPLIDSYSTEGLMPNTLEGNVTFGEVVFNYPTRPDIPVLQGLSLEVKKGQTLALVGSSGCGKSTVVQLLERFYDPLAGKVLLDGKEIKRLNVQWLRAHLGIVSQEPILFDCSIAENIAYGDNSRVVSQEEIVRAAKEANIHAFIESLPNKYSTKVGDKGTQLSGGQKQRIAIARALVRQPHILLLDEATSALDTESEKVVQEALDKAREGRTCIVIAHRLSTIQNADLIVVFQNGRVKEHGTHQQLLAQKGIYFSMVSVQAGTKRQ

- recognition as a P-gp substrate (Efflux Ratio criteria) (P-glycoprotein (P-gp)): not to be recognized as a P-gp substrate
- IC50 [1]: 14.8 nM
SMILES: CC(C)N(Cc1ccc(F)c(-c2ccc(OC(F)(F)F)cc2)c1)C(=O)c1cn(C)cn1 [Compound 10, N-{[6-Fluoro-4′-(trifluoromethoxy)biphenyl-3-yl]methyl}-1-methyl-N-(propan-2-yl)-1H-imidazole-4-carboxamide]
- Ratio (second exploration time/first exploration time) (male Sprague-Dawley rats; 0.1 mg/kg orally one hour before first exploration, p<0.05): 0.65 ± 0.05 ^p<0.05
- Ratio (second exploration time/first exploration time) (male Sprague-Dawley rats; 0.3 mg/kg orally one hour before first exploration, p<0.01): 0.60 ± 0.06 ^p<0.01
- effect on cognitive functions (social recognition, in words) (male Sprague-Dawley rats; compared to the vehicle group, oral): enhancing effect on cognitive functions
